From patent US10167262B2, “Herbicidal substituted 3-arylpyrazoles” (FMC CORPORATION, priority 2014, dated 2019)

What was measured:
Assay type in all cases: in vivo
[1] = system: yellow nutsedge (Cyperus esculentus); experiment: Test C pre-/postemergence greenhouse test, plant response rating 0-100
Procedure, shortened: (§1)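 After treatment, pots stay in the greenhouse 13–15 days before each species is compared with untreated controls and given a 0–100 visual score. Preemergence seeds are in loam blended with sand; postemergence plants, 1–4 leaves, are in peat-based medium.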

[2] = system: soybean (Glycine max); experiment: as above
Procedure, shortened: as §1

[3] = system: johnsongrass (Sorghum halepense); experiment: as above
Procedure, shortened: as §1

[4] = system: morningglory (Ipomoea coccinea); experiment: as above
Procedure, shortened: as §1

[5] = system: large (Lg) crabgrass (Digitaria sanguinalis); experiment: as above
Procedure, shortened: as §1

[6] = system: giant foxtail (Setaria faberii); experiment: as above
Procedure, shortened: as §1

[7] = system: blackgrass (Alopecurus myosuroides); experiment: as above
Procedure, shortened: as §1

[8] = system: lambsquarters (Chenopodium album); experiment: as above
Procedure, shortened: as §1

[9] = system: winter wheat (Triticum aestivum); experiment: as above
Procedure, shortened: as §1

[10] = system: galium (catchweed bedstraw, Galium aparine); experiment: as above
Procedure, shortened: as §1

[11] = system: chickweed (common chickweed, Stellaria media); experiment: Test C postemergence greenhouse test, plant response rating 0-100; details: for Plant response rating, Chickweed: scale 0 to 100
Procedure, shortened: (§2)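 Visual rating vs. controls, 0 (no effect) to 100 (complete control), 13–15 d after postemergence treatment. Potted plants, 1- to 4-leaf stage (2–18 cm), greenhouse-held.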

[12] = system: wild oat (Avena fatua); experiment: as above; details: for Plant response rating, Oat, Wild: scale 0 to 100
Procedure, shortened: as §2

[13] = system: kochia (Kochia scoparia); experiment: as above; details: for Plant response rating, Kochia: scale 0 to 100
Procedure, shortened: as §2

[14] = Postemergence, 250 g ai/ha, scale 0 to 100
[15] = Postemergence, 500 g ai/ha, scale 0 to 100

## O=Cn1cc(C(=O)c2ccccc2)c(-c2cc(Cl)cc(Cl)c2)n1 [Compound 28]
[1]; Postemergence, 62 g ai/ha
  Plant response rating (0 to 100), Nutsedge, Yellow: 0
[1]; Postemergence, 125 g ai/ha
  Plant response rating (0 to 100), Nutsedge, Yellow: 0
[1]; [14]
  Plant response rating, Nutsedge, Yellow: 5
[1]; [15]
  Plant response rating, Nutsedge, Yellow: 0
[1]; Preemergence, 62 g ai/ha
  Plant response rating, Nutsedge, Yellow: 0
[1]; Preemergence, 125 g ai/ha
  Plant response rating, Nutsedge, Yellow: 0
[1]; Preemergence, 250 g ai/ha
  Plant response rating, Nutsedge, Yellow: 0
[1]; Preemergence, 500 g ai/ha
  Plant response rating, Nutsedge, Yellow: 0
[2]; Postemergence, 62 g ai/ha
  Plant response rating (0 to 100), Soybean: 0
[2]; Postemergence, 125 g ai/ha
  Plant response rating (0 to 100), Soybean: 0
[2]; [14]
  Plant response rating, Soybean: 5
[2]; [15]
  Plant response rating, Soybean: 5
[2]; Preemergence, 62 g ai/ha
  Plant response rating, Soybean: 0
[2]; Preemergence, 125 g ai/ha
  Plant response rating, Soybean: 0
[2]; Preemergence, 250 g ai/ha
  Plant response rating, Soybean: 0
[2]; Preemergence, 500 g ai/ha
  Plant response rating, Soybean: 0
[3]; Postemergence, 62 g ai/ha
  Plant response rating (0 to 100), Johnsongrass: 0
[3]; Postemergence, 125 g ai/ha
  Plant response rating (0 to 100), Johnsongrass: 0
[3]; [14]
  Plant response rating, Johnsongrass: 0
[3]; [15]
  Plant response rating, Johnsongrass: 0
[3]; Preemergence, 62 g ai/ha
  Plant response rating, Johnsongrass: 0
[3]; Preemergence, 125 g ai/ha
  Plant response rating, Johnsongrass: 0
[3]; Preemergence, 250 g ai/ha
  Plant response rating, Johnsongrass: 0
[3]; Preemergence, 500 g ai/ha
  Plant response rating, Johnsongrass: 0
[4]; Postemergence, 62 g ai/ha
  Plant response rating (0 to 100), Morningglory: 0
[4]; Postemergence, 125 g ai/ha
  Plant response rating (0 to 100), Morningglory: 0
[4]; [14]
  Plant response rating, Morningglory: 0
[4]; [15]
  Plant response rating, Morningglory: 0
[4]; Preemergence, 62 g ai/ha
  Plant response rating, Morningglory: 0
[4]; Preemergence, 125 g ai/ha
  Plant response rating, Morningglory: 0
[4]; Preemergence, 250 g ai/ha
  Plant response rating, Morningglory: 0
[4]; Preemergence, 500 g ai/ha
  Plant response rating, Morningglory: 0
[5]; Postemergence, 62 g ai/ha
  Plant response rating (0 to 100), Crabgrass, Large: 0
[5]; Postemergence, 125 g ai/ha
  Plant response rating (0 to 100), Crabgrass, Large: 0
[5]; [14]
  Plant response rating, Crabgrass, Large: 0
[5]; [15]
  Plant response rating, Crabgrass, Large: 0
[5]; Preemergence, 62 g ai/ha
  Plant response rating, Crabgrass, Large: 0
[5]; Preemergence, 125 g ai/ha
  Plant response rating, Crabgrass, Large: 0
[5]; Preemergence, 250 g ai/ha
  Plant response rating, Crabgrass, Large: 15
[5]; Preemergence, 500 g ai/ha
  Plant response rating, Crabgrass, Large: 15
[6]; Postemergence, 62 g ai/ha
  Plant response rating (0 to 100), Foxtail, Giant: 0
[6]; Postemergence, 125 g ai/ha
  Plant response rating (0 to 100), Foxtail, Giant: 5
[6]; [14]
  Plant response rating, Foxtail, Giant: 0
[6]; [15]
  Plant response rating, Foxtail, Giant: 0
[6]; Preemergence, 62 g ai/ha
  Plant response rating, Foxtail, Giant: 0
[6]; Preemergence, 125 g ai/ha
  Plant response rating, Foxtail, Giant: 0
[6]; Preemergence, 250 g ai/ha
  Plant response rating, Foxtail, Giant: 10
[6]; Preemergence, 500 g ai/ha
  Plant response rating, Foxtail, Giant: 10
[7]; Postemergence, 62 g ai/ha
  Plant response rating (0 to 100), Blackgrass: 0
[7]; Postemergence, 125 g ai/ha, scale 0 to 100
  Plant response rating, Blackgrass: 0
[7]; [14]
  Plant response rating, Blackgrass: 0
[7]; [15]
  Plant response rating, Blackgrass: 0
[7]; Preemergence, 62 g ai/ha
  Plant response rating, Blackgrass: 0
[7]; Preemergence, 125 g ai/ha
  Plant response rating, Blackgrass: 0
[7]; Preemergence, 250 g ai/ha
  Plant response rating, Blackgrass: 5
[7]; Preemergence, 500 g ai/ha
  Plant response rating, Blackgrass: 5
[8]; Postemergence, 62 g ai/ha
  Plant response rating (0 to 100), Lambsquarters: 90
[8]; Postemergence, 125 g ai/ha
  Plant response rating (0 to 100), Lambsquarters: 90
[8]; [14]
  Plant response rating, Lambsquarters: 98
[8]; [15]
  Plant response rating, Lambsquarters: 98
[8]; Preemergence, 62 g ai/ha
  Plant response rating, Lambsquarters: 100
[8]; Preemergence, 125 g ai/ha
  Plant response rating, Lambsquarters: 100
[8]; Preemergence, 250 g ai/ha
  Plant response rating, Lambsquarters: 100
[8]; Preemergence, 500 g ai/ha
  Plant response rating, Lambsquarters: 100
[9]; Postemergence, 62 g ai/ha
  Plant response rating (0 to 100), Wheat: 0
[9]; Postemergence, 125 g ai/ha
  Plant response rating (0 to 100), Wheat: 0
[9]; [14]
  Plant response rating, Wheat: 0
[9]; [15]
  Plant response rating, Wheat: 0
[9]; Preemergence, 62 g ai/ha
  Plant response rating, Wheat: 0
[9]; Preemergence, 125 g ai/ha
  Plant response rating, Wheat: 0
[9]; Preemergence, 250 g ai/ha
  Plant response rating, Wheat: 0
[9]; Preemergence, 500 g ai/ha
  Plant response rating, Wheat: 0
[10]; Postemergence, 62 g ai/ha
  Plant response rating (0 to 100), Galium: 5
[10]; Postemergence, 125 g ai/ha
  Plant response rating (0 to 100), Galium: 40
[10]; [14]
  Plant response rating, Galium: 35
[10]; [15]
  Plant response rating, Galium: 30
[10]; Preemergence, 62 g ai/ha
  Plant response rating, Galium: 20
[10]; Preemergence, 125 g ai/ha
  Plant response rating, Galium: 80
[10]; Preemergence, 250 g ai/ha
  Plant response rating, Galium: 80
[10]; Preemergence, 500 g ai/ha
  Plant response rating, Galium: 80
[11]; 62 g ai/ha
  Plant response rating (0 to 100), Chickweed: 95
[11]; 125 g ai/ha
  Plant response rating (0 to 100), Chickweed: 95
[11]; 250 g ai/ha
  Plant response rating, Chickweed: 100
[11]; 500 g ai/ha
  Plant response rating, Chickweed: 98
[12]; 62 g ai/ha
  Plant response rating (0 to 100), Oat, Wild: 0
[12]; 125 g ai/ha
  Plant response rating (0 to 100), Oat, Wild: 0
[12]; 250 g ai/ha
  Plant response rating, Oat, Wild: 0
[12]; 500 g ai/ha
  Plant response rating, Oat, Wild: 0
[13]; 62 g ai/ha
  Plant response rating (0 to 100), Kochia: 80
[13]; 125 g ai/ha
  Plant response rating (0 to 100), Kochia: 85
[13]; 250 g ai/ha
  Plant response rating, Kochia: 85
[13]; 500 g ai/ha
  Plant response rating, Kochia: 90
